# Results: PubChem BioAssay (NCI)
#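 Grown in 96-well plates, cells were treated for 48 hours with each compound at five concentrations. Insufficient inhibition: endpoint recorded as highest concentration tested. At the GI50, growth is halved. TGI: concentration producing complete growth inhibition.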
# Experiments:
# Assay in all cases: inhibition of tumour cell growth, NCI panel, 48 h
# HCT-116 colon = system: HCT-116 colon
# SNB-75 CNS = system: SNB-75 CNS
# SK-MEL-28 melanoma = system: SK-MEL-28 melanoma
# MDA-MB-231 breast = system: MDA-MB-231 breast
# KM12 colon = system: KM12 colon
# SK-MEL-2 melanoma = system: SK-MEL-2 melanoma
# LOX IMVI melanoma = system: LOX IMVI melanoma
# MDA-MB-435 = system: MDA-MB-435
# UACC-257 melanoma = system: UACC-257 melanoma
# PC-3 prostate = system: PC-3 prostate
# SF-295 CNS = system: SF-295 CNS
# HT29 colon = system: HT29 colon
# SNB-19 CNS = system: SNB-19 CNS
# ACHN renal = system: ACHN renal
# RXF 393 renal = system: RXF 393 renal
# NCI-H226 lung = system: NCI-H226 lung
# HCC-2998 colon = system: HCC-2998 colon
# CAKI-1 renal = system: CAKI-1 renal
# T-47D breast = system: T-47D breast
# OVCAR-8 ovarian = system: OVCAR-8 ovarian
# MDA-N = system: MDA-N
# HOP-92 NSCLC = system: HOP-92 NSCLC
# SW-620 colon = system: SW-620 colon
# NCI-H460 lung = system: NCI-H460 lung
# A549 NSCLC = system: A549 NSCLC
# SF-539 CNS = system: SF-539 CNS
# UO-31 renal = system: UO-31 renal
# A498 renal = system: A498 renal
# NCI-H23 lung = system: NCI-H23 lung
# SK-MEL-5 melanoma = system: SK-MEL-5 melanoma
# CCRF-CEM leukemia = system: CCRF-CEM leukemia
# OVCAR-5 ovarian = system: OVCAR-5 ovarian
# HL-60(TB) leukemia = system: HL-60(TB) leukemia
# EKVX NSCLC = system: EKVX NSCLC
# MOLT-4 leukemia = system: MOLT-4 leukemia
# DU-145 prostate = system: DU-145 prostate
# HCT-15 colon = system: HCT-15 colon
# NCI/ADR-RES ovarian = system: NCI/ADR-RES ovarian
# IGROV1 ovarian = system: IGROV1 ovarian
# TK-10 renal = system: TK-10 renal
# HS 578T breast = system: HS 578T breast
# SN12C renal = system: SN12C renal
# COLO 205 colon = system: COLO 205 colon
# U251 CNS = system: U251 CNS
# SF-268 CNS = system: SF-268 CNS
# NCI-H522 lung = system: NCI-H522 lung
# M14 melanoma = system: M14 melanoma
# OVCAR-4 ovarian = system: OVCAR-4 ovarian
# BT-549 breast = system: BT-549 breast
# MCF7 breast = system: MCF7 breast
# HOP-62 NSCLC = system: HOP-62 NSCLC
# 786-0 renal = system: 786-0 renal
# MALME-3M melanoma = system: MALME-3M melanoma
# RPMI-8226 leukemia = system: RPMI-8226 leukemia
# OVCAR-3 ovarian = system: OVCAR-3 ovarian
# SK-OV-3 ovarian = system: SK-OV-3 ovarian
# K-562 leukemia = system: K-562 leukemia
# UACC-62 melanoma = system: UACC-62 melanoma
smiles,measurement,setting,value
O=c1cn[nH]c2nc3ccccc3n12,TGI,HCT-116 colon,> 100 µM
same,TGI,SNB-75 CNS,> 100 µM
same,TGI,SK-MEL-28 melanoma,> 100 µM
same,TGI,MDA-MB-231 breast,> 100 µM
same,TGI,KM12 colon,> 100 µM
same,TGI,SK-MEL-2 melanoma,> 100 µM
same,TGI,LOX IMVI melanoma,> 100 µM
same,TGI,MDA-MB-435,> 100 µM
same,TGI,UACC-257 melanoma,> 100 µM
same,TGI,PC-3 prostate,> 100 µM
same,TGI,SF-295 CNS,> 100 µM
same,TGI,HT29 colon,> 100 µM
same,TGI,SNB-19 CNS,> 100 µM
same,TGI,ACHN renal,> 100 µM
same,TGI,RXF 393 renal,> 100 µM
same,TGI,NCI-H226 lung,> 100 µM
same,TGI,HCC-2998 colon,> 100 µM
same,TGI,CAKI-1 renal,> 100 µM
same,TGI,T-47D breast,> 100 µM
same,TGI,OVCAR-8 ovarian,> 100 µM
same,TGI,MDA-N,> 100 µM
same,TGI,HOP-92 NSCLC,> 100 µM
same,TGI,SW-620 colon,> 100 µM
same,TGI,NCI-H460 lung,> 100 µM
same,TGI,A549 NSCLC,> 100 µM
same,TGI,SF-539 CNS,> 100 µM
same,TGI,UO-31 renal,> 100 µM
same,TGI,A498 renal,> 100 µM
same,TGI,NCI-H23 lung,> 100 µM
same,TGI,SK-MEL-5 melanoma,> 100 µM
same,TGI,CCRF-CEM leukemia,> 100 µM
same,TGI,OVCAR-5 ovarian,> 100 µM
same,TGI,HL-60(TB) leukemia,> 100 µM
same,TGI,EKVX NSCLC,> 100 µM
same,TGI,MOLT-4 leukemia,> 100 µM
same,TGI,DU-145 prostate,> 100 µM
same,TGI,HCT-15 colon,> 100 µM
same,TGI,NCI/ADR-RES ovarian,> 100 µM
same,TGI,IGROV1 ovarian,> 100 µM
same,TGI,TK-10 renal,> 100 µM
same,TGI,HS 578T breast,> 100 µM
same,TGI,SN12C renal,> 100 µM
same,TGI,COLO 205 colon,> 100 µM
same,TGI,U251 CNS,> 100 µM
same,TGI,SF-268 CNS,> 100 µM
same,TGI,NCI-H522 lung,> 100 µM
same,TGI,M14 melanoma,> 100 µM
same,TGI,OVCAR-4 ovarian,> 100 µM
same,TGI,BT-549 breast,> 100 µM
same,TGI,MCF7 breast,> 100 µM
same,TGI,HOP-62 NSCLC,> 100 µM
same,TGI,786-0 renal,> 100 µM
same,TGI,MALME-3M melanoma,> 100 µM
C=CC(O)(CBr)CCC(Br)C(C)(C)Cl (stereo unspecified),TGI,HCT-116 colon,> 10 µM
same,TGI,SNB-75 CNS,> 10 µM
same,TGI,SK-MEL-28 melanoma,> 10 µM
same,TGI,RPMI-8226 leukemia,> 10 µM
same,TGI,MDA-MB-231 breast,> 10 µM
same,TGI,KM12 colon,> 10 µM
same,TGI,SK-MEL-2 melanoma,> 10 µM
same,TGI,MDA-MB-435,> 10 µM
same,TGI,UACC-257 melanoma,> 10 µM
same,TGI,PC-3 prostate,> 10 µM
same,TGI,SF-295 CNS,> 10 µM
same,TGI,HT29 colon,> 10 µM
same,TGI,SNB-19 CNS,> 10 µM
same,TGI,OVCAR-3 ovarian,> 10 µM
same,TGI,ACHN renal,> 10 µM
same,TGI,SK-OV-3 ovarian,> 10 µM
same,TGI,RXF 393 renal,> 10 µM
same,TGI,NCI-H226 lung,> 10 µM
same,TGI,HCC-2998 colon,> 10 µM
same,TGI,CAKI-1 renal,> 10 µM
same,TGI,K-562 leukemia,> 10 µM
same,TGI,T-47D breast,> 10 µM
same,TGI,OVCAR-8 ovarian,> 10 µM
same,TGI,MDA-N,> 10 µM
same,TGI,HOP-92 NSCLC,> 10 µM
same,TGI,SW-620 colon,> 10 µM
same,TGI,NCI-H460 lung,> 10 µM
same,TGI,A549 NSCLC,> 10 µM
same,TGI,SF-539 CNS,> 10 µM
same,TGI,UO-31 renal,> 10 µM
same,TGI,A498 renal,> 10 µM
same,TGI,NCI-H23 lung,> 10 µM
same,TGI,SK-MEL-5 melanoma,> 10 µM
same,TGI,CCRF-CEM leukemia,> 10 µM
same,TGI,OVCAR-5 ovarian,> 10 µM
same,TGI,EKVX NSCLC,> 10 µM
same,TGI,MOLT-4 leukemia,> 10 µM
same,TGI,DU-145 prostate,> 10 µM
same,TGI,HCT-15 colon,> 10 µM
same,TGI,NCI/ADR-RES ovarian,> 10 µM
same,TGI,IGROV1 ovarian,> 10 µM
same,TGI,TK-10 renal,> 10 µM
same,TGI,HS 578T breast,> 10 µM
same,TGI,SN12C renal,> 10 µM
same,TGI,COLO 205 colon,> 10 µM
same,TGI,U251 CNS,> 10 µM
same,TGI,SF-268 CNS,> 10 µM
same,TGI,NCI-H522 lung,> 10 µM
same,TGI,M14 melanoma,> 10 µM
same,TGI,OVCAR-4 ovarian,> 10 µM
same,TGI,BT-549 breast,> 10 µM
same,TGI,MCF7 breast,> 10 µM
same,TGI,HOP-62 NSCLC,> 10 µM
same,TGI,786-0 renal,> 10 µM
same,TGI,MALME-3M melanoma,> 10 µM
COc1ccccc1-c1cc(=O)c2c(C)cc(C)nc2[nH]1,GI50,HCT-116 colon,74.5 µM
same,TGI,HCT-116 colon,> 100 µM
same,TGI,SK-MEL-28 melanoma,> 100 µM
same,TGI,RPMI-8226 leukemia,> 100 µM
same,TGI,MDA-MB-231 breast,> 100 µM
same,TGI,KM12 colon,> 100 µM
same,TGI,SK-MEL-2 melanoma,> 100 µM
same,TGI,LOX IMVI melanoma,> 100 µM
same,GI50,MDA-MB-435,32.1 µM
same,TGI,MDA-MB-435,> 100 µM
same,TGI,UACC-257 melanoma,> 100 µM
same,GI50,PC-3 prostate,48.3 µM
same,TGI,PC-3 prostate,> 100 µM
same,GI50,SF-295 CNS,53.1 µM
same,TGI,SF-295 CNS,> 100 µM
same,TGI,HT29 colon,> 100 µM
same,TGI,SNB-19 CNS,> 100 µM
same,GI50,OVCAR-3 ovarian,64.2 µM
same,TGI,OVCAR-3 ovarian,> 100 µM
same,TGI,ACHN renal,> 100 µM
same,TGI,SK-OV-3 ovarian,> 100 µM
same,TGI,RXF 393 renal,> 100 µM
same,TGI,NCI-H226 lung,> 100 µM
same,TGI,HCC-2998 colon,> 100 µM
same,TGI,CAKI-1 renal,> 100 µM
same,TGI,K-562 leukemia,> 100 µM
same,TGI,T-47D breast,> 100 µM
same,TGI,OVCAR-8 ovarian,> 100 µM
same,TGI,UACC-62 melanoma,> 100 µM
same,GI50,MDA-N,33.2 µM
same,TGI,MDA-N,> 100 µM
same,TGI,HOP-92 NSCLC,94.4 µM
same,TGI,SW-620 colon,> 100 µM
same,GI50,NCI-H460 lung,70.1 µM
same,TGI,NCI-H460 lung,> 100 µM
same,TGI,A549 NSCLC,> 100 µM
same,TGI,SF-539 CNS,> 100 µM
same,TGI,UO-31 renal,> 100 µM
same,TGI,A498 renal,> 100 µM
same,TGI,NCI-H23 lung,> 100 µM
same,GI50,SK-MEL-5 melanoma,33.7 µM
same,TGI,SK-MEL-5 melanoma,> 100 µM
same,TGI,CCRF-CEM leukemia,> 100 µM
same,TGI,OVCAR-5 ovarian,> 100 µM
same,GI50,HL-60(TB) leukemia,30.4 µM
same,TGI,HL-60(TB) leukemia,> 100 µM
same,TGI,EKVX NSCLC,> 100 µM
same,TGI,MOLT-4 leukemia,> 100 µM
same,TGI,DU-145 prostate,> 100 µM
same,TGI,HCT-15 colon,> 100 µM
same,TGI,NCI/ADR-RES ovarian,> 100 µM
same,TGI,IGROV1 ovarian,> 100 µM
same,TGI,TK-10 renal,> 100 µM
same,TGI,HS 578T breast,> 100 µM
same,TGI,SN12C renal,> 100 µM
same,TGI,COLO 205 colon,> 100 µM
same,GI50,U251 CNS,> 100 µM
same,TGI,U251 CNS,> 100 µM
same,TGI,SF-268 CNS,> 100 µM
same,TGI,NCI-H522 lung,> 100 µM
same,TGI,M14 melanoma,> 100 µM
same,TGI,OVCAR-4 ovarian,> 100 µM
same,TGI,BT-549 breast,> 100 µM
same,TGI,MCF7 breast,> 100 µM
same,TGI,HOP-62 NSCLC,> 100 µM
same,GI50,786-0 renal,> 100 µM
same,TGI,786-0 renal,> 100 µM
same,TGI,MALME-3M melanoma,> 100 µM
